# Data from patent US20060204502A1 (priority 2004, published 2006).
# Where “and” joins values, the source holds several entries; their conditions need not be identical. Equal entries are not always repeated. Where two headings read alike, the source gives them in different places.
# What was measured:
# A375 cells [1] = experiment: Colony formation assay of A375 cells; type: cell-based, human; details: 10 μM combined with paclitaxel (0.75 μg/ml), 7 days
# Protocol: FIG. 2 illustrates colony formation assay of A375 cells. Cells were treated with different drugs and colonies were counted after 7 days. The values represent the mean±SEM of four independent experiments. […] Analysis was by ANOVA followed by Dunnett's test.
# Control plates received the same volume of DMSO alone. After 7 days of growth at 37° C. in humidified atmosphere containing 5% CO2, the cells were fixed with absolute methanol for 5′ and stained with 1/10 Giemsa/phosphate-buffered saline (PBS) staining solution for 10 minutes. Staining solution was removed and colonies of greater than 30 cells were scored as survivors. For each treatment, six individual wells were scored.
# Human Melanoma A375 = experiment: MTT growth inhibitory assay, A375; details: A375 cells
# Protocol: An exemplary assay may comprise the following steps: Cells (1000-1500 cells/well) are seeded in a 96-well micro culture plate in a total volume of 100 μl/well. After overnight incubation in a humidified incubator at 37° C. with 5% CO2-95% air, chemotherapeutic drug solutions diluted with culture medium at various concentrations are added in the amount of 100 μl to each well. The plates are placed in a humidified incubator at 37° C. with 5% CO2-95% air for 7-10 days. The plates are then centrifuged briefly and 100 μl of the growth medium is removed. Cell cultures are incubated with 50 μl of MTT [3-(4,5-dimethylthiazol-2-yl)-2,5-diphenyl-tetrazolium bromide] reagent (1 mg/ml in Dulbecco's phosphate-buffered saline) for 4 hr at 37° C. The resultant purple formazan precipitate is solubilized with 200 μl of 0.04 N HCl in isopropanol. Absorbance is measured at a wavelength of 595 nm and at a reference wavelength of 655 nm using a Bio-Rad Model 3550 Microplate Reader. Preferably, all tests are run in duplicate for each dose level. […] The EZED50 computer program estimates the concentration of agent that inhibits cell growth by 50% as compared to the control cells. This is termed the IC50 and is determined by curve fitting test data using the following four logistic equation. [formula]
# If testing concentrations are properly selected (i.e., no or little growth inhibition at low concentrations and complete inhibition at high concentrations), EZED50 program fits the data extremely well and estimates the IC50 value accurately. […] In these instances, the data could be re-analyzed by fixing the Amax value.
# In this case, the IC50 could be estimated more accurately if both the Amax and Amin values are fixed. Although it may be feasible to estimate IC50 value by fixing Amax and/or Amax and Amin without repeating the experiment, the best way to determine the IC50 accurately is to decrease or increase the concentrations of the test agent and repeat the test.
# Inhibitory assay testing is also used to determine enhanced therapeutic effects from combining A3 receptor antagonists with other tumor inhibiting agents. The inhibitory cell growth assays are run with and without selected concentrations of A3 receptor antagonists. An enhanced therapeutic effect is present when the IC50 of the tumor inhibiting agent is lower with the A3 receptor antagonist.
# Quantitatively, the enhancement factor (EF) is calculated by dividing the IC50 value of the tumor inhibiting agent for a tumor cell line by the IC50 value of the agent with A3 receptor antagonist for the same cell line: [formula]
# Interpretation of the EF is dependent upon the concentrations of A3 receptor antagonist tested. For example, when using very low concentrations of A3 receptor antagonist, any EF above 1.0 is synergistic if the A3 receptor antagonist concentration is below the threshold of cell growth inhibition.
# The cells are cultured in a T25 Falcon Tissue Culture flask in a humidified incubator at 37° C. with 5% CO2-95% air. The cells are sub-cultured twice a week.
# All other agents were dissolved in 100% DMSO at appropriate concentrations.
# A375 cells [2] = experiment: Flow cytometry cell cycle (G2/M) and apoptosis (sub-G1) analysis, A375; type: cell-based, human; details: Homo sapiens, A-375, read-out: SEC50
# Protocol: Flow Cytometry Analysis: A375 and NCTC2544 adherent cells were trypsinized, mixed with floating cells, washed with PBS and permeabilised in 70% (vol/vol) ethanol/PBS solution at 4° C. for at least 24 hours. Jurkat, HeL023 and PBMC cells were centrifuged for 10 minutes at 1000×g. The cell pellet was then resuspended and permeabllised in 70% (vol/vol) ethanol/PBS solution at 4° C. for at least 24 hours. The cells were washed with PBS and the DNA was stained with a PBS solution, containing 20 μg/ml of propidium iodide and 100 μg/ml of RNAse, at room temperature for 30 minutes. Cells were analysed by FACScan (Becton-Dickinson) and the content of DNA was evaluated by the Cell-LISYS program (Becton-Dickinson). Cell distribution among cell cycle phases and apoptotic cells was evaluated as previously described (Secchiero et al., 2001). Briefly, the cell cycle distribution is shown as the percentage of cells containing 2n (G1 phase), 4n (G2 and M phases), 4n>x>2n. DNA amount (S phase) judged by propidium iodide staining. The apoptotic population is the percentage of cells with DNA content lower than 2n.
# After 24 hours, cells were collected for flow cytometry analysis. PD 98059 was used at 20 uM as an inhibitor of MEK to prevent MEK-1 activation. […]
# EC50 values were obtained by analysing G2/M accumulation dose response curve. ECMAX values were obtained by analysing sub-G1 accumulation dose response curve. Paclitaxel values have units of ng/ml.
# HIF-1α = HIF-1α protein immunoblot in hypoxic cells; type: cell-based, human; details: A375
# Protocol: Cell culture and hypoxia treatment: Cells were maintained in DMEM (A375), EMEM (NCTC 2544) or RPMI 1640 (U87MG, U2OS) medium containing 10% fetal calf serum, penicillin (100 U/ml), streptomycin (100 ug/ml), and L-glutamine (2 mM) at 37° C. in 5% CO2/95% air. Cells were passaged two or three times weekly at a ratio between 1:5 and 1:10. Hypoxic exposure was in BBL™ GasPak pouch™ System (Becton Dickinson) that reduce oxygen concentration of less than 2% within 2 hours of incubation at 35° C.
# Cells were harvested and washed with ice-cold PBS containing 1 mM sodium orthovanadate, AEBSF 104 mM, aprotinin 0.08 mM, leupeptin 2 mM, bestatin 4 mM, pepstatin A 1.5 mM, E-64 1.4 mM. Cells were then lysed in Triton lysis buffer. The protein concentration was determined using BCA protein assay kit (Pierce). […] The gel was then electroblotted onto a nitrocellulose membrane. Membranes were blocked with 5% nonfat dry milk in PBS containing 0.1% Tween-20 and incubated with antibodies against HIF-1α (1:250 dilution) and HIF-1β (1:1000 dilution) in 5% nonfat dry milk in PBS/0.1% Tween-20 overnight at 4° C. Aliquots of total protein sample (50 ug) were analyzed using antibodies specific for phosphorylated (Thr183/Tyr185) or total p44/p42 MAPK (1:5000 dilution), phosphorylated (Thr180/Tyr182) or total p38 MAPK (1:1000 dilution) and for A3 receptor (1 µg/ml dilution). Filters were washed and incubated for 1 hour at room temperature with peroxidase-conjugated secondary antibodies against mouse and rabbit IgG (1:2000 dilution). […] The membranes were then stripped and reprobed with tubulin (1:250) to ensure equal protein loading.
# U0126 was used at 10 and 30 uM as inhibitor of MEK-1 and MEK-2 to prevent p44 and p42 MAPK activation. SB202190 was used at 1 and 10 uM as inhibitor of p38 MAPK.
# Densitometry analysis: The intensity of each band in immunoblot assay was quantified using molecular analyst/PC densitometry software (Bio-Rad). […] The data were presented as the mean±S.E., and analyzed by the Student's test.
# P-gp = P-gp (Homo sapiens, UniProt P08183); type: cell-based; details: 10 μM; for P-gp mediated Rh123 efflux (FRES vs FMAX): 3 hours efflux
# Sequence of P-gp (P08183 whole entry): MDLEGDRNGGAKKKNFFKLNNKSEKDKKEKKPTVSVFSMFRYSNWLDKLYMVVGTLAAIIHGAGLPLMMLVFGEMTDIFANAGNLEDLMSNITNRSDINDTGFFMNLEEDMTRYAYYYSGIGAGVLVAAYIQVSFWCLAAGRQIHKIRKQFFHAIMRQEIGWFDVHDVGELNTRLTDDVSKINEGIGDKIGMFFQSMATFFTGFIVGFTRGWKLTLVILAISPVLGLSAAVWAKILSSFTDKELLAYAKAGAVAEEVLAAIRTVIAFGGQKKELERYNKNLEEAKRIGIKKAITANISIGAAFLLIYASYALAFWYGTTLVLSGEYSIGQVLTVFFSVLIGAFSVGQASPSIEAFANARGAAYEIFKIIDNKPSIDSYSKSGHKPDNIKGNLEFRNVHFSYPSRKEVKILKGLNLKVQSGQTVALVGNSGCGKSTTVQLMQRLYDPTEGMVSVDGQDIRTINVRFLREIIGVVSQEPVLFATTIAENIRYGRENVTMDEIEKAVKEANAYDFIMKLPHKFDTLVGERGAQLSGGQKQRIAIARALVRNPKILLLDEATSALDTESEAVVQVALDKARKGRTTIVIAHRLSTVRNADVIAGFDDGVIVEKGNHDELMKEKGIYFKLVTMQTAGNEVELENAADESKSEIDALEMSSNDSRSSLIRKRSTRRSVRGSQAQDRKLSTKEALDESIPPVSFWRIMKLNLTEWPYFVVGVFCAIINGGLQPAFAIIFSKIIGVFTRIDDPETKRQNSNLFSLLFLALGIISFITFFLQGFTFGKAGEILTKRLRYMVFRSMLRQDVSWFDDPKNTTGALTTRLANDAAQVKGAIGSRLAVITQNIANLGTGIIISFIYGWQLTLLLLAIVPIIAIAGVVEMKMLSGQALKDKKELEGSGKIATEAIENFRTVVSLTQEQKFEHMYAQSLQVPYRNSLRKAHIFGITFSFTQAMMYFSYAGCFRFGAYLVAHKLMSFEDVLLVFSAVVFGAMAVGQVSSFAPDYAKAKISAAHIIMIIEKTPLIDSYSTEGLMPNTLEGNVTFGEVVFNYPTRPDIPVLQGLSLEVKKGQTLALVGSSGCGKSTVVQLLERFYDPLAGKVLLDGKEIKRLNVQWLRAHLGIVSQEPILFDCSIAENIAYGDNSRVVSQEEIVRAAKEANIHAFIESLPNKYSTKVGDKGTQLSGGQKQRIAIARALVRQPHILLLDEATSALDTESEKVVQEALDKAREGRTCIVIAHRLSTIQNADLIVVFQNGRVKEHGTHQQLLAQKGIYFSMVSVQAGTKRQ
# Protocol: Rhodamine 123 Efflux Assay: 5×10^5 cells from each subline were loaded with 50 ng/ml of rhodamine 123 for 30 minutes at 37 C in medium. The cells were washed and resuspended in dye-staining agent free medium for 3 hours at 37 C. to allow rhodamine 123 efflux. The cells were then washed twice and the fluorescence of intracellular rhodamine 123 were analysed with Flow cytometer (residual fluorescence FRES). The fluorescence was compared with loaded cells maintained at 4 C. to prevent drug export (maximal fluorescence FMAX). […] Cells from each subline that were not being exposed to rhodamine 123 were used as negative controls.
# Rhodamine 123 (Rh123) retention, a P-gp functional assay, was studied in all cell lines. This assay was performed by incubating cells with Rh123 and determining Rh123 accumulation by measuring its fluorescence. The maximum load of Rh123 (FMAX) was quantified at the end of treatment harvesting the cells and storing them at 4° C. to prevent any active Rh123 efflux. The P-gp drug efflux was allowed incubating Rh123-loaded cells in fresh new medium Rh123-free for 3 hours at 37° C. After this incubation, residual fluorescence (FRES) was measured and compared to FMAX.
smiles,measurement,setting,value
"CCCn1cc2c(nc(NC(=O)Nc3ccc(OC)cc3)n3nc(-c4ccco4)nc23)n1 [MRE3008F20, 5-[[(4-Methoxyphenyl)amino]carbonyl]amino-8-propyl-2-(2-furyl)-pyrazolo[4,3-e]1,2,4-triazolo[1,5-c]pyrimidine]","colony formation, % of DMSO control",A375 cells [1],0.2%
same,Enhancement Factor,"Human Melanoma A375; enhancement of docetaxel IC50, A3 antagonist at 3 μg/ml",6.9
same,Enhancement Factor,"Human Melanoma A375; enhancement of docetaxel IC50, A3 antagonist at 10 μg/ml",5.3
same,Enhancement Factor,"Human Melanoma A375; enhancement of paclitaxel IC50, A3 antagonist at 1 μg/ml",7.1
same,Enhancement Factor,"Human Melanoma A375; enhancement of paclitaxel IC50, A3 antagonist at 3 μg/ml",6.4
same,Enhancement Factor,"Human Melanoma A375; enhancement of paclitaxel IC50, A3 antagonist at 10 μg/ml",7.1 and 8.5
same,Enhancement Factor,"Human Melanoma A375; enhancement of paclitaxel, at all three concentrations (1, 3, and 10 μg/ml)",6.4-7.1
same,EC50,A375 cells [2],550 ± 60 nM
same,effect on adenosine-induced HIF-1α protein expression,"HIF-1α; hypoxia 4 hours, adenosine 100 μM, antagonist 100 nM",abrogated
same,effect on Cl-IB-MECA-induced HIF-1α modulation,"HIF-1α; hypoxia, antagonist 10 and 100 nM, Cl-IB-MECA 10 and 100 nM",able to abrogate the effect of Cl-IB-MECA
same,IC50,"HIF-1α; Homo sapiens, A-375, read-out: IC50, inhibition of HIF-1α protein increase induced by 10 nM Cl-IB-MECA, hypoxia 4 hours, 0.3-30 nM",0.9 ± 0.08 nM
same,P-gp mediated Rh123 efflux (FRES vs FMAX),P-gp; A375 cells,completely blockade of P-gp mediated Rh123 transport
same,% of Rh123 Negative Cells (cells expressing P-gp activity),P-gp; HeL023 cells,0.5 ± 0.3%
same,P-gp mediated Rh123 efflux (FRES vs FMAX),P-gp; HeL023 cells,near total P-gp inhibition
